Results from PubChem BioAssay (NCI).
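Growth conditions: 96-well plates. Treatment: test compound, 48 hours, 5 concentrations. Analysis: linear interpolation between bracketing concentrations; unreached endpoints set to highest concentration. At the TGI there is no net growth.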

What was measured:
Assay in all cases: DTP human tumour cell line panel, 48 h
786-0 renal = system: 786-0 renal
A498 renal = system: A498 renal
DMS 114 small cell lung = system: DMS 114 small cell lung
DMS 273 small cell lung = system: DMS 273 small cell lung
HCT-15 colon = system: HCT-15 colon
K-562 leukemia = system: K-562 leukemia
KM12 colon = system: KM12 colon
LXFL 529 NSCLC = system: LXFL 529 NSCLC
M14 melanoma = system: M14 melanoma
M19-MEL melanoma = system: M19-MEL melanoma
MDA-N = system: MDA-N
SW-620 colon = system: SW-620 colon
UACC-62 melanoma = system: UACC-62 melanoma

CCN(CC)CCCNc1ccc2nnn3c4ccc(O)cc4c(=O)c1c23
TGI (786-0 renal): 19.6 µM | TGI (A498 renal): 24.3 µM | TGI (DMS 114 small cell lung): 25.1 µM | TGI (DMS 273 small cell lung): 17.9 µM | TGI (HCT-15 colon): 19.4 µM | TGI (K-562 leukemia): 53.3 µM | TGI (KM12 colon): 20 µM | TGI (LXFL 529 NSCLC): 21.2 µM | TGI (M14 melanoma): 23.6 µM | TGI (M19-MEL melanoma): 26.8 µM | TGI (MDA-N): 20.9 µM | TGI (SW-620 colon): 18.4 µM | TGI (UACC-62 melanoma): 30.9 µM

C=C1C[C@]23C[C@@]1(O)CC[C@H]2[C@@]12C=C[C@H](O)[C@@](C)(C(=O)O1)[C@H]2[C@@H]3C(=O)O
TGI (786-0 renal): > 100 µM | TGI (DMS 114 small cell lung): > 100 µM | TGI (DMS 273 small cell lung): > 100 µM | TGI (HCT-15 colon): > 100 µM | TGI (K-562 leukemia): > 100 µM | TGI (KM12 colon): > 100 µM | TGI (M14 melanoma): > 100 µM | TGI (M19-MEL melanoma): > 100 µM | TGI (SW-620 colon): > 100 µM | TGI (UACC-62 melanoma): > 100 µM

CN1CC(c2ccccc2)N(CCCCN2CC(c3ccccc3)N(C)CC2c2ccccc2)CC1c1ccccc1 (stereo unspecified)
TGI (786-0 renal): > 100 µM | TGI (A498 renal): > 100 µM | TGI (HCT-15 colon): > 100 µM | TGI (K-562 leukemia): > 100 µM | TGI (KM12 colon): > 100 µM | TGI (M14 melanoma): > 100 µM | TGI (MDA-N): > 100 µM | TGI (SW-620 colon): > 100 µM | TGI (UACC-62 melanoma): > 100 µM

Cc1cc(S(=O)(=O)Nc2nnc3cc(C(F)(F)F)cc(C)n23)c(S)cc1Cl
TGI (786-0 renal): > 100 µM | TGI (A498 renal): 37.2 µM | TGI (HCT-15 colon): > 100 µM | TGI (K-562 leukemia): > 100 µM | TGI (KM12 colon): > 100 µM | TGI (M14 melanoma): > 100 µM | TGI (MDA-N): > 100 µM | TGI (SW-620 colon): > 100 µM | TGI (UACC-62 melanoma): > 100 µM

CCCCN(c1ccccc1)c1ncnc2c1cnn2C
TGI (786-0 renal): > 100 µM | TGI (A498 renal): 71.1 µM | TGI (HCT-15 colon): > 100 µM | TGI (K-562 leukemia): > 100 µM | TGI (KM12 colon): > 100 µM | TGI (M14 melanoma): > 100 µM | TGI (MDA-N): > 100 µM | TGI (SW-620 colon): > 100 µM | TGI (UACC-62 melanoma): > 100 µM

O=c1[nH]nc(Cc2ccc(Cl)cc2)n1O
TGI (786-0 renal): > 100 µM | TGI (A498 renal): > 100 µM | TGI (HCT-15 colon): > 100 µM | TGI (K-562 leukemia): > 100 µM | TGI (KM12 colon): > 100 µM | TGI (M14 melanoma): > 100 µM | TGI (MDA-N): > 100 µM | TGI (SW-620 colon): > 100 µM | TGI (UACC-62 melanoma): > 100 µM

O=C1[C@@H]2Cc3c([nH]c4ccccc34)C(C3CCCCC3)N2C(=O)[C@@H]2CCCN12 (stereo partly specified)
TGI (786-0 renal): 75.9 µM | TGI (A498 renal): > 100 µM | TGI (HCT-15 colon): > 100 µM | TGI (K-562 leukemia): > 100 µM | TGI (KM12 colon): 58.4 µM | TGI (M14 melanoma): > 100 µM | TGI (MDA-N): > 100 µM | TGI (SW-620 colon): > 100 µM | TGI (UACC-62 melanoma): 49 µM

O=C(NCCNCCO)N/N=C/c1ccc(Cl)cc1
TGI (786-0 renal): > 100 µM | TGI (A498 renal): > 100 µM | TGI (HCT-15 colon): > 100 µM | TGI (K-562 leukemia): > 100 µM | TGI (KM12 colon): > 100 µM | TGI (M14 melanoma): > 100 µM | TGI (MDA-N): > 100 µM | TGI (SW-620 colon): > 100 µM | TGI (UACC-62 melanoma): > 100 µM

O=C1C=CC(=O)c2ncccc21
TGI (786-0 renal): 7.61 µM | TGI (A498 renal): 27.4 µM | TGI (HCT-15 colon): 5.72 µM | TGI (K-562 leukemia): > 24.7 µM | TGI (KM12 colon): 25.5 µM | TGI (M14 melanoma): 13.1 µM | TGI (MDA-N): 16.1 µM | TGI (SW-620 colon): 4.62 µM | TGI (UACC-62 melanoma): 9.3 µM

NC(=O)COc1ccccc1
TGI (786-0 renal): > 100 µM | TGI (A498 renal): > 100 µM | TGI (DMS 114 small cell lung): > 100 µM | TGI (DMS 273 small cell lung): > 100 µM | TGI (HCT-15 colon): > 100 µM | TGI (K-562 leukemia): > 100 µM | TGI (KM12 colon): > 100 µM | TGI (LXFL 529 NSCLC): > 100 µM | TGI (M14 melanoma): > 100 µM | TGI (M19-MEL melanoma): > 100 µM | TGI (SW-620 colon): > 100 µM | TGI (UACC-62 melanoma): > 100 µM

OC1OC(c2ccco2)C(F)(F)C(F)(F)C1(F)F (stereo unspecified)
TGI (786-0 renal): > 100 µM | TGI (A498 renal): > 100 µM | TGI (HCT-15 colon): > 100 µM | TGI (K-562 leukemia): > 100 µM | TGI (KM12 colon): > 100 µM | TGI (M14 melanoma): > 100 µM | TGI (MDA-N): > 100 µM | TGI (SW-620 colon): > 100 µM | TGI (UACC-62 melanoma): > 100 µM

CCOC(=O)c1c(N2CCOCC2)[nH]c(=O)c(C(c2ccc(OC)cc2)c2c(O)c(C(=O)OCC)c(N3CCOCC3)[nH]c2=O)c1O
TGI (786-0 renal): > 100 µM | TGI (A498 renal): > 100 µM | TGI (HCT-15 colon): > 100 µM | TGI (K-562 leukemia): > 100 µM | TGI (KM12 colon): > 100 µM | TGI (M14 melanoma): > 100 µM | TGI (MDA-N): > 100 µM | TGI (SW-620 colon): > 100 µM | TGI (UACC-62 melanoma): > 100 µM

CC#CC(O)(C(=O)OC1CCCN(C)C1)C1=CC=CCC1 (stereo unspecified)
TGI (786-0 renal): > 100 µM | TGI (A498 renal): > 100 µM | TGI (HCT-15 colon): > 100 µM | TGI (K-562 leukemia): > 100 µM | TGI (KM12 colon): > 100 µM | TGI (M14 melanoma): > 100 µM | TGI (MDA-N): > 100 µM | TGI (SW-620 colon): > 100 µM | TGI (UACC-62 melanoma): > 100 µM

NC(N)=N/N=C/c1nc2sccn2c1[N+](=O)[O-]
TGI (786-0 renal): > 100 µM | TGI (A498 renal): > 100 µM | TGI (HCT-15 colon): > 100 µM | TGI (K-562 leukemia): 85.8 µM | TGI (KM12 colon): 47.6 µM | TGI (M14 melanoma): 52.7 µM | TGI (MDA-N): 39.1 µM | TGI (SW-620 colon): > 100 µM | TGI (UACC-62 melanoma): > 100 µM

O=C1OS2(OCc3cccc4cccc2c34)c2ccccc21 (stereo unspecified)
TGI (786-0 renal): > 100 µM | TGI (A498 renal): > 100 µM | TGI (HCT-15 colon): > 100 µM | TGI (K-562 leukemia): > 100 µM | TGI (KM12 colon): > 100 µM | TGI (M14 melanoma): > 100 µM | TGI (MDA-N): > 100 µM | TGI (SW-620 colon): > 100 µM | TGI (UACC-62 melanoma): > 100 µM

CSC(=NC1=NC(C(F)(F)F)(C(F)(F)F)N=C(c2ccccc2)O1)SC
TGI (786-0 renal): 43.5 µM | TGI (A498 renal): 51.6 µM | TGI (HCT-15 colon): 33.5 µM | TGI (K-562 leukemia): > 100 µM | TGI (KM12 colon): 20.7 µM | TGI (M14 melanoma): 54.6 µM | TGI (MDA-N): 41.7 µM | TGI (SW-620 colon): > 100 µM | TGI (UACC-62 melanoma): 64.2 µM

O=[As](O)(O)c1cc(N=Nc2ccc(-c3ccc(N=Nc4cc([As](=O)(O)O)c(O)cc4O)cc3)cc2)c(O)cc1O
TGI (786-0 renal): > 100 µM | TGI (A498 renal): > 73.4 µM | TGI (DMS 114 small cell lung): > 100 µM | TGI (DMS 273 small cell lung): > 100 µM | TGI (HCT-15 colon): > 100 µM | TGI (K-562 leukemia): > 100 µM | TGI (KM12 colon): > 100 µM | TGI (LXFL 529 NSCLC): > 100 µM | TGI (M14 melanoma): > 100 µM | TGI (M19-MEL melanoma): > 100 µM | TGI (SW-620 colon): > 100 µM | TGI (UACC-62 melanoma): > 100 µM

Cc1ccc(S(=O)(=O)N2CCN(CCN(C)CCN3CCN(S(=O)(=O)c4ccc(C)cc4)CC3)CC2)cc1
TGI (786-0 renal): 39.3 µM | TGI (A498 renal): 31.8 µM | TGI (HCT-15 colon): 31.9 µM | TGI (K-562 leukemia): 35.2 µM | TGI (KM12 colon): 31.6 µM | TGI (M14 melanoma): 31.2 µM | TGI (MDA-N): 39.7 µM | TGI (SW-620 colon): 31.7 µM | TGI (UACC-62 melanoma): 32.8 µM

COc1ccc(-c2c(C#N)c(-c3ccccc3)n(NS(=O)(=O)c3ccccc3)c(=O)c2C#N)cc1
TGI (786-0 renal): > 100 µM | TGI (A498 renal): > 100 µM | TGI (HCT-15 colon): > 100 µM | TGI (K-562 leukemia): > 100 µM | TGI (KM12 colon): > 100 µM | TGI (M14 melanoma): > 100 µM | TGI (MDA-N): > 100 µM | TGI (SW-620 colon): > 100 µM | TGI (UACC-62 melanoma): > 100 µM

CC1(C)[C@@H]2C[C@H]1c1cnc(-c3ccccn3)cc1C2[C@@H]1c2cc(-c3ccccn3)ncc2[C@@H]2C[C@H]1C2(C)C (stereo partly specified)
TGI (786-0 renal): > 100 µM | TGI (A498 renal): > 100 µM | TGI (HCT-15 colon): > 100 µM | TGI (K-562 leukemia): > 100 µM | TGI (KM12 colon): > 100 µM | TGI (M14 melanoma): > 100 µM | TGI (MDA-N): > 100 µM | TGI (SW-620 colon): > 100 µM | TGI (UACC-62 melanoma): > 100 µM
